# Patent US6900219B2, “ABCA-1 elevating compounds” (CV Therapeutics, Inc., priority 2002, dated 2005)
# System: ABCA-1 gene
# Experiment: compounds tested and found to elevate cellular expression of the ABCA-1 gene (Examples 1-6; test not named)
# Assay type: cell-based
# Procedure: Activity testing is conducted as described in those patents and patent applications referenced above, and in the Examples below, and by methods apparent to one skilled in the art.
row,Molecule,cellular expression of the ABCA-1 gene
1,"O=C(Nc1nccs1)c1ccccc1C(F)(F)F [2-trifluoromethylphenyl-N-(1,3-thiazol-2-yl)carboxamide]",elevate cellular expression of the ABCA-1 gene
2,"Cc1cc(C)c2ccc(NC(=O)c3ccc(Cl)cc3)nc2n1 [N-(5,7-dimethylpyridino[3,2-e]pyridin-2-yl)(4-chlorophenyl)carboxamide]",elevate cellular expression of the ABCA-1 gene
3,"O=C(Nc1ccc2c(c1)OCCO2)NC1CCCCC1 [(2H,3H-benzo[e]1,4-dioxin-6-ylamino)-N-cyclohexylcarboxamide]",elevate cellular expression of the ABCA-1 gene
4,"CCCCN(CC(=O)N1CCc2ccccc2C1)C(=O)Nc1cccc(Cl)c1Cl [N-(2,3-dichlorophenyl)[butyl(2-oxo-2-(2-1,2,3,4-tetrahydroisoquinolyl)ethyl)amino]carboxamide]",elevate cellular expression of the ABCA-1 gene
5,Cc1ccc2nc(-c3ccc(NC(=O)c4ccco4)cc3)sc2c1 [2-furyl-N-[4-(6-methylbenzothiazol-2-yl)phenyl]carboxamide],elevate cellular expression of the ABCA-1 gene
6,"CCc1c(C(=O)NC(C)C(C)C)cnn1-c1nc(-c2ccc(C)cc2)cs1 (stereo not shown) [N-(1,2-dimethylpropyl){5-ethyl-1-[4-(4-methylphenyl)(1,3-thiazol-2-yl)]pyrazol-4-yl}carboxamide]",elevate cellular expression of the ABCA-1 gene
7,"CCCCCCNC(=O)c1cnn(-c2nc(-c3ccc(Br)cc3)cs2)c1CC [{1-[4-(4-bromophenyl)(1,3-thiazol-2-yl)]-5-ethylpyrazol-4-yl}-N-hexylcarboxamide]",elevate cellular expression of the ABCA-1 gene
8,CCOC(=O)CNC(=O)N(CCOC)C(C)c1nc2ccccc2c(=O)n1-c1ccc(Br)cc1 (stereo not shown) [ethyl 2-[(N-{[3-(4-bromophenyl)-4-oxo(3-hydroquinazolin-2-yl)]ethyl}-N-(2-methoxyethyl)carbamoyl)amino]acetate],elevate cellular expression of the ABCA-1 gene
9,"O=C(Nc1ccc2c(c1)OCCO2)Nc1ccccc1Br [N-(2H,3H-benzo[e]1,4-dioxin-6-yl)[(2-bromophenyl)amino]carboxamide]",elevate cellular expression of the ABCA-1 gene
10,"O=C1CSC(NC(=O)c2ccc(OC(F)(F)F)cc2)=N1 [(4-trifluoromethoxyphenyl)-N-(4-oxo(1,3-thiazolin-2-yl))carboxamide]",elevate cellular expression of the ABCA-1 gene
11,"O=C(Nc1nc(-c2ccc3ccccc3c2)cs1)C1CCCC1 [cyclopentyl-N-(4-(2-naphthyl)(1,3-thiazol-2-yl))carboxamide]",elevate cellular expression of the ABCA-1 gene
12,"O=C(NC1=NC(C(=O)O)CS1)c1ccc(Cl)c(Cl)c1 (stereo not shown) [2-[(3,4-dichlorophenyl)carbonylamino]-1,3-thiazoline-4-carboxylic acid]",elevate cellular expression of the ABCA-1 gene
13,"O=C(Nc1nc2ccccc2c(=O)o1)c1ccc(Cl)c(Cl)c1 [(3,4-dichlorophenyl)-N-(4-oxobenzo[d]1,3-oxazin-2-yl)carboxamide]",elevate cellular expression of the ABCA-1 gene
14,"{1-[4-(3-methoxyphenyl)(1,3-thiazol-2-yl)]-5-methylpyrazol-4-yl}-N-(methylethyl)carboxamide",elevate cellular expression of the ABCA-1 gene
15,"N-(4-naphthyl(1,3-thiazol-2-yl))[3-(trifluoromethyl)phenyl]carboxamide",elevate cellular expression of the ABCA-1 gene
16,"CCOC(=O)C1=C(NCCc2ccccc2)CCN(C(=O)c2ccc(-c3ccccc3)cc2)C1 [ethyl 4-[(2-phenylethyl)amino]-1-[(4-phenylphenyl)carbonyl]-1,2,5,6-tetrahydropyridine-3-carboxylate]",elevate cellular expression of the ABCA-1 gene
17,"N#Cc1ccc(C(=O)Nc2nc(-c3ccccc3)cs2)cc1 [(4-cyanophenyl)-N-(4-phenyl(1,3-thiazol-2-yl))carboxamide]",elevate cellular expression of the ABCA-1 gene
18,"O=C(Nc1ncc(-c2ccccc2Cl)s1)c1ccco1 [N-[5-(2-chlorophenyl)(1,3-thiazol-2-yl)]-2-furylcarboxamide]",elevate cellular expression of the ABCA-1 gene
19,"O=C(NCC1CCCCC1)Nc1ccc(Cl)c(Cl)c1 [N-(3,4-dichlorophenyl)[(cyclohexylmethyl)amino]carboxamide]",elevate cellular expression of the ABCA-1 gene
20,"CCc1c(C(=O)N2CCN(C(=O)C(c3ccccc3)c3ccccc3)C(C)C2)cnn1-c1nc(-c2ccc(Cl)cc2)cs1 (stereo not shown) [1-(4-{1-[4-(4-chloro-phenyl)-thiazol-2-yl]-5-ethyl-1H-pyrazole-4-carbonyl}-2-methyl-piperazin-1-yl)-2,2-diphenyl-ethanone]",elevate cellular expression of the ABCA-1 gene

row,Molecule,cellular expression of the ABCA-1 gene
1,N#Cc1cccc(C(=O)Nc2nc3c(Cl)cccc3s2)c1 [N-(4-chlorobenzothiazol-2-yl)(3-cyanophenyl)carboxamide],elevate cellular expression of the ABCA-1 gene
2,"Nc1c(C(=O)Oc2ccccc2)oc2nc3c(cc12)CCC3 [phenyl 3-amino-5,6,7-trihydrocyclopenta[1,2-b]furano[4,5-e]pyridine-2-carboxylate]",elevate cellular expression of the ABCA-1 gene
3,"Cc1ccc(C)c(NC(=O)c2sc3ccccc3c2Cl)c1 [N-(2,5-dimethylphenyl)(3-chlorobenzo[b]thiophen-2-yl)carboxamide]",elevate cellular expression of the ABCA-1 gene
4,"CCOC(=O)C1=C(NCCc2ccccc2)CCN(C(=O)c2ccc(OC)cc2)C1 [ethyl 1-[(4-methoxyphenyl)carbonyl]-4-[(2-phenylethyl)amino]-1,2,5,6-tetrahydropyridine-3-carboxylate]",elevate cellular expression of the ABCA-1 gene
5,2-[({2-[4-(6-chlorobenzothiazol-2-yl)piperazinyl]ethyl}oxycarbonyl)methylthio]acetic acid,elevate cellular expression of the ABCA-1 gene
6,O=C(Nc1nc2c(Cl)cccc2s1)c1cccs1 [N-(4-chlorobenzothiazol-2-yl)-2-thienylcarboxamide],elevate cellular expression of the ABCA-1 gene
7,"Fc1cccc(CSc2ncc3ccccn23)c1 [3-[(3-fluorophenyl)methylthio]-4-hydroimidazolo[1,5-a]pyridine]",elevate cellular expression of the ABCA-1 gene
8,O=C(Nc1ccc(Cl)cc1)c1ccccc1Cl [(2-chlorophenyl)-N-(4-chlorophenyl)carboxamide],elevate cellular expression of the ABCA-1 gene
9,"Cc1ccc(-c2csc(-n3ncc(C(=O)NC4CC5CCC4C5)c3C)n2)cc1 (stereo not shown) [N-bicyclo[2.2.1]hept-2-yl {5-methyl-1-[4-(4-methylphenyl)(1,3-thiazol-2-yl)]pyrazol-4-yl}carboxamide]",elevate cellular expression of the ABCA-1 gene
10,CC(C)CN(C(=O)Nc1cccc(C(F)(F)F)c1)C(C)c1nc2ccccc2c(=O)n1-c1ccc2ccccc2c1 (stereo not shown) [N-(2-methylpropyl)-N-[(3-(2-naphthyl)-4-oxo(3-hydroquinazolin-2-yl))ethyl]{[3-(trifluoromethyl)phenyl]amino}carboxamide],elevate cellular expression of the ABCA-1 gene
11,"COc1cc(C(=O)NC2=NC(C(=O)O)CS2)cc(OC)c1OC (stereo not shown) [2-[(3,4,5-trimethoxyphenyl)carbonylamino]-1,3-thiazoline-4-carboxylic acid]",elevate cellular expression of the ABCA-1 gene
12,COc1ccc(C(=O)N(CCc2ccccc2)Cc2c3ccccc3cc3ccccc23)cc1 [N-(9-anthrylmethyl)(4-methoxyphenyl)-N-(2-phenylethyl)carboxamide],elevate cellular expression of the ABCA-1 gene
13,CCc1c(C(=O)N2CCN(C(=O)c3ccc4ccccc4c3)C(C)C2)cnn1-c1nc(-c2ccc(Cl)cc2)cs1 (stereo not shown) [{1-[4-(4-chloro-phenyl)-thiazol-2-yl]-5-ethyl-1H-pyrazol-4-yl}-[3-methyl-4-(naphthalene-2-carbonyl)-piperazin-1-yl]-methanone],elevate cellular expression of the ABCA-1 gene
14,Cc1ccc(-c2csc(-n3ncc(C(=O)NCCC(C)C)c3C(C)C)n2)cc1 [5-isopropyl-1-(4-p-tolyl-thiazol-2-yl)-1H-pyrazole-4-carboxylic acid (3-methyl-butyl)-amide],elevate cellular expression of the ABCA-1 gene
15,CCc1c(C(=O)N2CCN(C(=O)C(CC)c3ccccc3)C(C)C2)cnn1-c1nc(-c2ccc(Cl)cc2)cs1 (stereo not shown) [1-(4-{1-[4-(4-chloro-phenyl)-thiazol-2-yl]-5-ethyl-1H-pyrazole-4-carbonyl}-2-methyl-piperazin-1-yl)-2-phenyl-butan-1-one],elevate cellular expression of the ABCA-1 gene
16,"O=C(Nc1ncc(-c2ccccc2Cl)s1)C1CC1 [N-[5-(2-chlorophenyl)(1,3-thiazol-2-yl)]cyclopropylcarboxamide]",elevate cellular expression of the ABCA-1 gene
17,O=C(Nc1ccccc1)Nc1ccc2c(c1)CCC2 [N-indan-5-yl(phenylamino)carboxamide],elevate cellular expression of the ABCA-1 gene
18,"COc1ccc(/C=C/c2nc3ccccc3c(=O)[nH]2)cc1OC [2-[(1E)-2-(3,4-dimethoxyphenyl)vinyl]-3-hydroquinazolin-4-one]",elevate cellular expression of the ABCA-1 gene
19,O=C(CCC1CCCC1)Nc1nc2ccccc2s1 [N-benzothiazol-2-yl-3-cyclopentylpropanamide],elevate cellular expression of the ABCA-1 gene
20,O=C(NCCc1ccccn1)c1sc2ccccc2c1Cl [(3-chlorobenzo[b]thiophen-2-yl)-N-(2-pyridyl)ethyl)carboxamide],elevate cellular expression of the ABCA-1 gene
